Several values for one entry are separate records, joined by “and”; a condition that tells them apart may be missing. Identical values can stand only once. Toxic doses and inconclusive results are not listed.
Test system: L1210 leukemia ip in BDF1 mice, survival T/C
Assay: NCI In Vivo Anticancer Drug Screen. Data for tumor model L1210 Leukemia (intraperitoneal) in B6D2F1 (BDF1) mice
Conditions: endpoint: mean survival time, higher = longer survival
In short: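 Tumor cells were implanted, animals were treated, and survival was followed. The result divides the treated measurement by the vehicle-control measurement.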

[1] = dose: 100.0 mg/kg/injection, schedule: Q04DX003 (ip), vehicle: Klucel (hydroxypropylcellulose) (HPC)
[2] = dose: 200.0 mg/kg/injection, schedule: Q04DX003 (ip), vehicle: Klucel (hydroxypropylcellulose) (HPC)
[3] = dose: 100.0 mg/kg/injection, schedule: Q04DX002 (ip), vehicle: Klucel (hydroxypropylcellulose) (HPC)
[4] = dose: 200.0 mg/kg/injection, schedule: Q04DX002 (ip), vehicle: Klucel (hydroxypropylcellulose) (HPC)
[5] = dose: 100.0 mg/kg/injection, schedule: Q01DX001 (ip), vehicle: carboxymethylcellulose (CMC)
[6] = dose: 200.0 mg/kg/injection, schedule: Q01DX001 (ip), vehicle: carboxymethylcellulose (CMC)
[7] = dose: 400.0 mg/kg/injection, schedule: Q01DX001 (ip), vehicle: carboxymethylcellulose (CMC)
[8] = dose: 50.0 mg/kg/injection, schedule: Q04DX002 (ip), vehicle: saline with Tween-80
[9] = dose: 100.0 mg/kg/injection, schedule: Q04DX003 (ip), vehicle: saline
[10] = dose: 200.0 mg/kg/injection, schedule: Q04DX003 (ip), vehicle: saline
[11] = dose: 400.0 mg/kg/injection, schedule: Q04DX003 (ip), vehicle: Klucel (hydroxypropylcellulose) (HPC)
[12] = dose: 400.0 mg/kg/injection, schedule: Q04DX003 (ip), vehicle: saline
[13] = dose: 100.0 mg/kg/injection, schedule: Q04DX003 (ip), vehicle: saline with Tween-80
[14] = dose: 100.0 mg/kg/injection, schedule: Q01DX009 (ip), vehicle: saline with Tween-80
[15] = dose: 400.0 mg/kg/injection, schedule: Q01DX009 (ip), vehicle: saline with Tween-80

Question: How did the T/C (dose: 50.0 mg/kg/injection, schedule: Q04DX003 (ip), vehicle: Klucel (hydroxypropylcellulose) (HPC)) turn out when `Nc1cccc(C(=O)CC(=O)Nc2nccs2)c1` was run?
Answer: 90 % of control

Question: And the T/C (dose: 100.0 mg/kg/injection, schedule: Q01DX001 (ip), vehicle: Klucel (hydroxypropylcellulose) (HPC))?
Answer: 98 % of control

Question: And the T/C [1]?
Answer: 95 % of control

Question: And the T/C (dose: 200.0 mg/kg/injection, schedule: Q01DX001 (ip), vehicle: Klucel (hydroxypropylcellulose) (HPC))?
Answer: 103 % of control

Question: What about the T/C [2] of the same compound?
Answer: 90 % of control

Question: And the T/C (dose: 400.0 mg/kg/injection, schedule: Q01DX001 (ip), vehicle: Klucel (hydroxypropylcellulose) (HPC))?
Answer: 98 % of control

Question: Which results are given for `O/N=C(/C(=N/O)c1ccccc1)c1ccccc1.O/N=C(/C(=N/O)c1ccccc1)c1ccccc1.[Pd]`?
Answer: T/C (dose: 50.0 mg/kg/injection, schedule: Q04DX002 (ip), vehicle: Klucel (hydroxypropylcellulose) (HPC)): 106 % of control; T/C [3]: 95 % of control; T/C [4]: 103 % of control

Question: `CC(C)C1=CC23CCC4C(C)(C(=O)O)CCCC4(C)C2CC1C1C(=O)N(CCCN(C)C)C(=O)C13` (stereo not given) was tested. Which T/C (dose: 75.0 mg/kg/injection, schedule: Q01DX001 (ip), vehicle: other) did it give?
Answer: 96 % of control

Question: And the T/C (dose: 150.0 mg/kg/injection, schedule: Q01DX001 (ip), vehicle: other)?
Answer: 94 % of control

Question: What does the source list for `O=C(CCCC(=O)N=Nc1c(Cl)c(O)c2ccccc2c1O)N=Nc1c(Cl)c(O)c2ccccc2c1O`?
Answer: T/C [5]: 118 % of control; T/C [6]: 101 % of control; T/C [7]: 103 % of control

Question: What does the source list for `CC(=O)N1CC(n2nnc3c(N)ncnc32)CC1CO` (stereo not given)?
Answer: T/C (dose: 12.5 mg/kg/injection, schedule: Q04DX002 (ip), vehicle: saline with Tween-80): 98 % of control; T/C (dose: 25.0 mg/kg/injection, schedule: Q04DX002 (ip), vehicle: saline with Tween-80): 102 % of control; T/C [8]: 94 % of control

Question: `CN(C)Cc1cccc(-c2ccccc2)c1O` was tested. Which T/C (dose: 100.0 mg/kg/injection, schedule: Q01DX009 (ip), vehicle: saline) did it give?
Answer: 107 % of control

Question: And the T/C [1]?
Answer: 95 % of control

Question: What about the T/C [9] of the same compound?
Answer: 100 % of control

Question: What about the T/C (dose: 200.0 mg/kg/injection, schedule: Q01DX009 (ip), vehicle: saline) of the same compound?
Answer: 107 % of control

Question: And the T/C [2]?
Answer: 98 % of control

Question: What about the T/C [10] of the same compound?
Answer: 100 % of control

Question: What about the T/C (dose: 400.0 mg/kg/injection, schedule: Q01DX009 (ip), vehicle: saline) of the same compound?
Answer: 103 % of control

Question: And the T/C [11]?
Answer: 98 % of control

Question: What about the T/C [12] of the same compound?
Answer: 100 % of control

Question: Which T/C [13] does the source give for `O=C1OC(=O)C2(Br)C3C=CC(C3)C12Br` (stereo not given) here?
Answer: 98 % of control

Question: And the T/C (dose: 200.0 mg/kg/injection, schedule: Q04DX003 (ip), vehicle: saline with Tween-80)?
Answer: 96 % of control

Question: What about the T/C (dose: 400.0 mg/kg/injection, schedule: Q04DX003 (ip), vehicle: saline with Tween-80) of the same compound?
Answer: 91 % of control

Question: `O=S(=O)(O)CCC(O)S(=O)(=O)O` (stereo not given) was tested. Which T/C [3] did it give?
Answer: 98 % of control

Question: What about the T/C [4] of the same compound?
Answer: 92 % of control

Question: What about the T/C (dose: 400.0 mg/kg/injection, schedule: Q04DX002 (ip), vehicle: Klucel (hydroxypropylcellulose) (HPC)) of the same compound?
Answer: 92 % of control

Question: What does the source list for `C[C@]12CC[C@H]3[C@@H](CC[C@@H]4C[C@@H](O)CC[C@@]43C=O)[C@]13O[C@@H]3CC2c1ccc(=O)oc1` (stereo not given in full)?
Answer: T/C (dose: 0.25 mg/kg/injection, schedule: Q01DX009 (ip), vehicle: Klucel (hydroxypropylcellulose) (HPC)): 100 % of control; T/C (dose: 0.5 mg/kg/injection, schedule: Q01DX009 (ip), vehicle: Klucel (hydroxypropylcellulose) (HPC)): 100 % of control; T/C (dose: 1.0 mg/kg/injection, schedule: Q01DX009 (ip), vehicle: Klucel (hydroxypropylcellulose) (HPC)): 100 % of control

Question: Which results are given for `O=C1NC(=O)C2C3C=CC(C12)C1C2C(=O)NC(=O)C2C31` (stereo not given)?
Answer: T/C (dose: 12.5 mg/kg/injection, schedule: Q01DX009 (ip), vehicle: saline with Tween-80): 102 % of control; T/C (dose: 25.0 mg/kg/injection, schedule: Q01DX009 (ip), vehicle: saline with Tween-80): 95 % of control; T/C (dose: 50.0 mg/kg/injection, schedule: Q01DX009 (ip), vehicle: saline with Tween-80): 111 % of control; T/C [14]: 178 % of control; T/C [15]: 90 % of control

Question: What does the source list for `O=CN=C(CS(=O)(=O)O)c1ccccc1`?
Answer: T/C (dose: 50.0 mg/kg/injection, schedule: Q04DX003 (ip), vehicle: saline): 103 % of control; T/C [9]: 108 % of control; T/C [10]: 100 % of control; T/C [12]: 102 % of control

Question: `CS(=O)(=O)OCCNCCOS(C)(=O)=O` was tested. Which T/C (dose: 15.0 mg/kg/injection, schedule: Q01DX001 (ip), vehicle: saline) did it give?
Answer: 104 % of control

Question: And the T/C (dose: 30.0 mg/kg/injection, schedule: Q01DX001 (ip), vehicle: saline)?
Answer: 113 % of control

Question: What about the T/C (dose: 60.0 mg/kg/injection, schedule: Q01DX001 (ip), vehicle: saline) of the same compound?
Answer: 106 % of control

Question: And the T/C (dose: 75.0 mg/kg/injection, schedule: Q01DX001 (ip), vehicle: saline)?
Answer: 93 % of control

Question: With `CCOC(=O)CSc1ccc2c3c(cccc13)C(=O)OC2=O` as the compound, how does the T/C (dose: 20.0 mg/kg/injection, schedule: Q01DX009 (ip), vehicle: other) read?
Answer: 104 % of control

Question: What about the T/C (dose: 40.0 mg/kg/injection, schedule: Q01DX009 (ip), vehicle: other) of the same compound?
Answer: 98 % of control

Question: What about the T/C (dose: 80.0 mg/kg/injection, schedule: Q01DX009 (ip), vehicle: other) of the same compound?
Answer: 91 % of control

Question: What about the T/C (dose: 87.5 mg/kg/injection, schedule: Q01DX009 (ip), vehicle: other) of the same compound?
Answer: 92 % of control

Question: For `Nc1cc2c(cc1I)-c1ccc(Br)cc1C2`, which T/C [5] is on record?
Answer: 102 % of control

Question: What about the T/C [6] of the same compound?
Answer: 107 % of control

Question: And the T/C [7]?
Answer: 98 % of control

Question: For `CNC(=O)n1cnc(N)n1` (tested in a mixture with another compound), which T/C (dose: 100.0 mg/kg/injection, schedule: Q01DX009 (ip), vehicle: Klucel (hydroxypropylcellulose) (HPC)) is on record?
Answer: 96 % of control

Question: And the T/C (dose: 200.0 mg/kg/injection, schedule: Q01DX009 (ip), vehicle: Klucel (hydroxypropylcellulose) (HPC))?
Answer: 103 % of control

Question: With `CC1CC[N-]CC1.CC1CC[N-]CC1.CC1CC[N-]CC1.CC1CC[N-]CC1.O=C([O-])C(=O)[O-].O=C([O-])C(=O)[O-].[Nb+5].[O-][O-].[O-][O-].[Pt+4]` as the compound, how does the T/C (dose: 0.25 mg/kg/injection, schedule: Q01DX009 (ip), vehicle: saline) read?
Answer: 96 % of control

Question: And the T/C (dose: 0.39 mg/kg/injection, schedule: Q04DX003 (ip), vehicle: saline)?
Answer: 110 % of control

Question: And the T/C (dose: 0.5 mg/kg/injection, schedule: Q01DX009 (ip), vehicle: saline)?
Answer: 93 % of control

Question: And the T/C (dose: 0.78 mg/kg/injection, schedule: Q04DX003 (ip), vehicle: saline)?
Answer: 110 % of control

Question: And the T/C (dose: 1.0 mg/kg/injection, schedule: Q01DX009 (ip), vehicle: saline)?
Answer: 98 % of control

Question: What about the T/C (dose: 1.56 mg/kg/injection, schedule: Q04DX003 (ip), vehicle: saline) of the same compound?
Answer: 101 % of control

Question: What about the T/C (dose: 2.0 mg/kg/injection, schedule: Q01DX009 (ip), vehicle: saline) of the same compound?
Answer: 102 % of control

Question: And the T/C (dose: 3.12 mg/kg/injection, schedule: Q04DX003 (ip), vehicle: saline)?
Answer: 96 % of control and 111 % of control

Question: For `CSc1cccc(NC2=NCCO2)c1`, which T/C [8] is on record?
Answer: 103 % of control

Question: What about the T/C (dose: 100.0 mg/kg/injection, schedule: Q04DX002 (ip), vehicle: saline with Tween-80) of the same compound?
Answer: 98 % of control

Question: And the T/C (dose: 200.0 mg/kg/injection, schedule: Q04DX002 (ip), vehicle: saline with Tween-80)?
Answer: 88 % of control

Question: And the T/C (dose: 400.0 mg/kg/injection, schedule: Q04DX002 (ip), vehicle: saline with Tween-80)?
Answer: 95 % of control

Question: Which T/C (dose: 1.5 mg/kg/injection, schedule: Q01DX009 (ip), vehicle: sodium bicarbonate) does the source give for `CN(Cc1cnc2nc(N)nc(N)c2n1)c1c(F)cc(C(=O)NC(CCC(=O)O)C(=O)O)cc1F` (stereo not given) here?
Answer: 114 % of control

Question: What about the T/C (dose: 12.0 mg/kg/injection, schedule: Q01DX009 (ip), vehicle: sodium bicarbonate) of the same compound?
Answer: 154 % of control

Question: Which results are given for `CCn1c(C)nc2cc(Cl)c(Br)cc21`?
Answer: T/C [9]: 107 % of control; T/C [10]: 110 % of control

Question: Which T/C (dose: 100.0 mg/kg/injection, schedule: Q01DX009 (ip), vehicle: other) does the source give for `COc1ccccc1NC(=O)OCc1ccco1` here?
Answer: 106 % of control

Question: What about the T/C (dose: 200.0 mg/kg/injection, schedule: Q01DX009 (ip), vehicle: other) of the same compound?
Answer: 101 % of control

Question: And the T/C (dose: 400.0 mg/kg/injection, schedule: Q01DX009 (ip), vehicle: other)?
Answer: 104 % of control

Question: Which T/C [9] does the source give for `O=C(OCCBr)c1ccc(Cl)cc1` here?
Answer: 101 % of control

Question: And the T/C [10]?
Answer: 97 % of control

Question: What about the T/C [12] of the same compound?
Answer: 103 % of control

Question: Which results are given for `O=C(Nc1ccccc1C(F)(F)F)c1cccc(C(=O)Nc2ccccc2C(F)(F)F)c1`?
Answer: T/C [14]: 86 % of control; T/C [13]: 87 % of control; T/C [15]: 88 % of control

Question: What does the source list for `COC(=O)C1ON(C(=O)c2ccccc2)C(C)C(O)C1I` (stereo not given)?
Answer: T/C [1]: 96 % of control; T/C [2]: 97 % of control; T/C [11]: 92 % of control

— PubChem BioAssay AID248 (DTP/NCI, 2004)
